Assay results published in ChEMBL document CHEMBL1201862, “PubChem BioAssay data set” (2004).
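Tested at 5 concentrations; 48 h exposure; 96-well plates; endpoints linearly interpolated, else capped at highest concentration. The concentration for 50% growth inhibition is given as GI50.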 Calls of active or inactive are those of the source. No stated cut-off is given here; in the data, active = GI50 up to about 1.1 µM and inactive = higher.

How the values were obtained:
Experiment in all cases: NCI tumour cell line growth inhibition, 48 h
[1] = system: A549
[2] = system: ACHN
[3] = system: CCRF-CEM
[4] = system: DMS-273
[5] = system: HCC 2998
[6] = system: HOP-62
[7] = system: HOP-92
[8] = system: NCI-H522
[9] = system: OVCAR-5
[10] = system: OVCAR-8
[11] = system: SF-295
[12] = system: SNB-75
[13] = system: SR
[14] = system: TK-10
[15] = system: UO-31
[16] = system: OVCAR-4
[17] = system: SK-MEL-5

SMILES	GI50 [1]	GI50 [2]	GI50 [3]	GI50 [4]	GI50 [5]	GI50 [6]	GI50 [7]	GI50 [8]	GI50 [9]	GI50 [10]	GI50 [11]	GI50 [12]	GI50 [13]	GI50 [14]	GI50 [15]	GI50 [16]	GI50 [17]
Cc1ccc(-c2cc(-c3ccco3)c(C#N)c(=O)n2C2OC(OC(=O)c3ccccc3)C(OC(=O)c3ccccc3)C2OC(=O)c2ccccc2)cc1 (configuration not stated)	> 100 µM (inactive)	> 100 µM (inactive)	> 100 µM (inactive)	97.1 µM (inactive)	> 100 µM (inactive)	43 µM (inactive)	24.7 µM (inactive)	62.8 µM (inactive)	> 100 µM (inactive)	> 100 µM (inactive)	59 µM (inactive)	> 100 µM (inactive)	> 100 µM (inactive)	96.2 µM (inactive)	> 100 µM (inactive)	–	–
COc1ccc([Se]c2ccc(OC)cc2OC)c(OC)c1	10.8 µM (inactive)	45.3 µM (inactive)	20.2 µM (inactive)	3.85 µM (inactive)	–	–	2.2 µM (inactive)	13 µM (inactive)	> 100 µM (inactive)	33.6 µM (inactive)	8.57 µM (inactive)	9.02 µM (inactive)	6.22 µM (inactive)	28.4 µM (inactive)	18 µM (inactive)	21.9 µM (inactive)	22.2 µM (inactive)
O=C(Nc1cccc(Cc2cccc(NC(=O)c3ccccc3)c2)c1)c1ccccc1	24.8 µM (inactive)	28.2 µM (inactive)	> 100 µM (inactive)	55 µM (inactive)	> 100 µM (inactive)	22 µM (inactive)	9.77 µM (inactive)	25.2 µM (inactive)	> 100 µM (inactive)	19.5 µM (inactive)	16.5 µM (inactive)	10.5 µM (inactive)	> 100 µM (inactive)	> 100 µM (inactive)	12.7 µM (inactive)	6.79 µM (inactive)	25.1 µM (inactive)
Cc1c(Cl)ccc2c1NC(=O)C2(O)CC(=O)c1cccc2ccccc12 (configuration not stated)	> 100 µM (inactive)	> 100 µM (inactive)	40.3 µM (inactive)	40.1 µM (inactive)	> 100 µM (inactive)	> 100 µM (inactive)	–	43.8 µM (inactive)	> 100 µM (inactive)	> 100 µM (inactive)	> 100 µM (inactive)	> 100 µM (inactive)	24.1 µM (inactive)	> 100 µM (inactive)	> 100 µM (inactive)	26.2 µM (inactive)	34 µM (inactive)
O=C1CCC[C@]2(CCCC(=O)N2)C1	> 100 µM (inactive)	> 100 µM (inactive)	> 100 µM (inactive)	> 100 µM (inactive)	> 100 µM (inactive)	> 100 µM (inactive)	> 100 µM (inactive)	> 100 µM (inactive)	> 100 µM (inactive)	> 100 µM (inactive)	> 100 µM (inactive)	77.4 µM (inactive)	> 100 µM (inactive)	> 100 µM (inactive)	> 100 µM (inactive)	> 100 µM (inactive)	> 100 µM (inactive)
O=C(OCN1C(=O)C2C3C=CC(C2C1=O)C1C2C(=O)N(COC(=O)C4CCCN4)C(=O)C2C31)C1CCCN1 (configuration not stated)	62.5 µM (inactive)	> 50.5 µM (inactive)	21.8 µM (inactive)	38.5 µM (inactive)	> 100 µM (inactive)	> 100 µM (inactive)	> 100 µM (inactive)	78.3 µM (inactive)	> 100 µM (inactive)	25.5 µM (inactive)	> 82.6 µM (inactive)	> 82.6 µM (inactive)	< 0.01 µM (active)	> 100 µM (inactive)	> 100 µM (inactive)	> 58.3 µM (inactive)	62.5 µM (inactive)
O=c1c2cccnc2ncn1CCCN1CCCC1	> 100 µM (inactive)	> 100 µM (inactive)	> 100 µM (inactive)	> 100 µM (inactive)	–	> 100 µM (inactive)	> 100 µM (inactive)	> 100 µM (inactive)	> 100 µM (inactive)	> 100 µM (inactive)	> 100 µM (inactive)	> 100 µM (inactive)	> 100 µM (inactive)	> 100 µM (inactive)	> 100 µM (inactive)	> 100 µM (inactive)	> 100 µM (inactive)
O=C(O)CNc1cc(-c2ccccc2)nc(NCC(=O)O)n1	> 100 µM (inactive)	> 100 µM (inactive)	> 100 µM (inactive)	> 100 µM (inactive)	> 100 µM (inactive)	> 100 µM (inactive)	> 100 µM (inactive)	> 100 µM (inactive)	> 100 µM (inactive)	> 100 µM (inactive)	> 100 µM (inactive)	> 100 µM (inactive)	> 100 µM (inactive)	> 100 µM (inactive)	> 100 µM (inactive)	> 100 µM (inactive)	> 100 µM (inactive)
CCC1(N=[N+]=[N-])C(=O)c2ccccc2N(C)C1=O (configuration not stated)	> 100 µM (inactive)	> 100 µM (inactive)	> 100 µM (inactive)	> 100 µM (inactive)	> 100 µM (inactive)	> 100 µM (inactive)	> 100 µM (inactive)	> 100 µM (inactive)	> 100 µM (inactive)	> 100 µM (inactive)	> 100 µM (inactive)	> 100 µM (inactive)	> 100 µM (inactive)	> 100 µM (inactive)	> 100 µM (inactive)	> 100 µM (inactive)	> 100 µM (inactive)
O=C1CCC(c2ccccc2)C(O)(C(=O)O)C1 (configuration not stated)	> 100 µM (inactive)	> 100 µM (inactive)	> 100 µM (inactive)	> 100 µM (inactive)	> 100 µM (inactive)	> 100 µM (inactive)	> 100 µM (inactive)	> 100 µM (inactive)	> 100 µM (inactive)	> 100 µM (inactive)	> 100 µM (inactive)	> 100 µM (inactive)	> 100 µM (inactive)	> 100 µM (inactive)	> 100 µM (inactive)	> 100 µM (inactive)	> 100 µM (inactive)
CNCC(=O)Nc1ccc2c(c1)C(=O)c1ccc(NC(=O)CNC)cc1C2=O	11.2 µM (inactive)	–	2.74 µM (inactive)	2.6 µM (inactive)	4.72 µM (inactive)	2.9 µM (inactive)	1.78 µM (inactive)	1.59 µM (inactive)	17.5 µM (inactive)	2.69 µM (inactive)	5.3 µM (inactive)	13.6 µM (inactive)	1.96 µM (inactive)	17.3 µM (inactive)	11.8 µM (inactive)	1.91 µM (inactive)	4.68 µM (inactive)
COc1ccc(/C=c2/sc3n(c2=O)NC2(CCC(C)CC2)NN=3)cc1 (configuration not stated)	> 100 µM (inactive)	> 100 µM (inactive)	> 100 µM (inactive)	> 100 µM (inactive)	> 100 µM (inactive)	> 100 µM (inactive)	34.9 µM (inactive)	> 100 µM (inactive)	> 100 µM (inactive)	> 100 µM (inactive)	> 100 µM (inactive)	> 100 µM (inactive)	> 100 µM (inactive)	> 100 µM (inactive)	> 100 µM (inactive)	52.5 µM (inactive)	49.7 µM (inactive)
